Results on 54 compounds are retold here after the C3SDB collision cross section collection.

“And” between values parts separate entries of the source, which are not always exact repeats. Identical values can stand only once.

The conditions of this series: instrument: DT, single field, calibrated with Agilent tune mix (Agilent).

As to `Nc1ncnc2c1ncn2[C@H]1C[C@H](O)[C@@H](COP(=O)(O)OP(=O)(O)OP(=O)(O)O)O1` [2'-Deoxyadenosine 5'-triphosphate], the “collision cross section (N2)” value ([M-H]-) stood at 183.78 Å².

On to `Nc1nc(=O)c2ncn([C@H]3C[C@H](O)[C@@H](COP(=O)(O)OP(=O)(O)O)O3)c2[nH]1` [2'-Deoxyguanosine 5'-diphosphate], for which the “collision cross section (N2)” value ([M-H2O-H]-) amounted to 174.28 Å².

`O=c1ccn([C@H]2C[C@H](O)[C@@H](CO)O2)c(=O)[nH]1` [2'-Deoxyuridine]: the “collision cross section (N2)” value reads like this: ([M+Na]+) 156 Å²; ([M-H]-) 145.91 Å².

For the compound `O=C(O)c1cccc(O)c1O` [2,3-Dihydroxybenzoic acid], under “[M-H]-”, the “collision cross section (N2)” value was determined as 118.42 Å².

With `CCCCCCCC/C=C/CCCCCCCC(=O)O[C@H](COC(=O)CCCCCCCCCCCCCCC)COP(=O)([O-])OCC[N+](C)(C)C` [2-Oleoyl-1-palmitoyl-sn-glycero-3-phosphocholine], the “collision cross section (N2)” value reads like this: ([M+H]+) 286.7 Å²; ([M-H]-) 272.17 Å².

As for `Nc1ncnc2c1ncn2[C@@H]1O[C@H](COP(=O)(O)OS(=O)(=O)O)[C@@H](OP(=O)(O)O)[C@H]1O` [3'-Phosphoadenosine 5'-phosphosulfate], the “collision cross section (N2)” value ([M-H]-) came out at 192.76 Å².

In the case of `O=C(O)CCc1ccc(O)c(O)c1` [3,4-Dihydroxyhydrocinnamic acid], the “collision cross section (N2)” value ([M-H]-) is given as 133.05 Å².

As to `O=C(O)C(O)c1ccc(O)c(O)c1` (configuration not stated) [3,4-Dihydroxymandelic acid], the “collision cross section (N2)” value by setting is: ([M+H-H2O]+) 132 Å²; ([M-H]-) 135 Å².

As for `Nc1cccc(C(=O)O)c1O` [3-Aminosalicylic acid], the “collision cross section (N2)” value ([M-H]-) is reported as 122.07 Å².

Regarding `CC(O)(CC(=O)O)CC(=O)O` [3-Hydorxy-3-methylglutaric acid], the “collision cross section (N2)” value ([M-H]-) is on record as 123.66 Å².

As for `O=C(O)Cc1cccc(O)c1` [3-Hydroxyphenylacetic acid], the “collision cross section (N2)” value ([M+Na-2H]-) was found to be 135.74 Å².

Consider `N[C@@H](Cc1ccc(O)c(I)c1)C(=O)O` [3-Iodo-L-tyrosine], for which the “collision cross section (N2)” value by setting is: ([M+H]+) 158.8 Å²; ([M+Na-2H]-) 148.03 Å².

For the compound `CC(CCC(=O)O)CC(=O)O` (configuration not stated) [3-Methyladipic acid], under “[M-H]-”, the “collision cross section (N2)” value was found to be 129.01 Å².

Regarding `CC(C)CC(=O)SCCNC(=O)CCNC(=O)[C@H](O)C(C)(C)COP(=O)(O)OP(=O)(O)OC[C@H]1O[C@@H](n2cnc3c(N)ncnc32)[C@H](O)[C@@H]1OP(=O)(O)O` [3-Methylbutanoyl-CoA], where the note is “[M-H]-”, the “collision cross section (N2)” value was determined as 255.72 Å².

For the compound `O=C(O)CCc1ccccc1` [3-Phenylpropanoic acid], the “collision cross section (N2)” value ([M-H]-) came out at 135.74 Å².

In the case of `NC(=O)NCCC(=O)O` [3-Ureidopropionate], the “collision cross section (N2)” value ([M+Na]+) came out at 132.3 Å².

With `C[C@]12CC[C@@H](O)C[C@@H]1CC[C@@H]1[C@@H]2CC[C@]2(C)C(=O)CC[C@@H]12` [3alpha-Hydroxy-5alpha-androstan-17-one], the “collision cross section (N2)” value ([M-H]-) was 176.71 Å².

Consider `O=C(O)/C=C/c1ccc(O)cc1` [4-Hydroxycinnamic acid], for which the “collision cross section (N2)” value is, setting by setting: ([M+H-H2O]+) 127 Å²; ([M-H]-) 129.27 Å².

`CC1=C(/C=C/C(C)=C/C=C/C(C)=C/CO)C(C)(C)CCC1=O` [4-Oxoretinol]: for the setting “[M+H-H2O]+”, the “collision cross section (N2)” value is recorded as 173.3 Å².

In the case of `Cc1ncc(CO)c(C(=O)O)c1O` [4-Pyridoxic acid], the “collision cross section (N2)” value ([M+H]+) is 135.3 Å² and 135.8 Å².

Turning to `NCCCCC(=O)O` [5-Aminopentanoic acid], the “collision cross section (N2)” value runs as follows: ([M+H]+) 121.3 Å²; ([M-H]-) 124.49 Å².

On to `NC[C@H](O)CC[C@H](N)C(=O)O` [5-Hydroxy-L-lysine], for which the “collision cross section (N2)” value reads like this: ([M+H]+) 135.1 Å²; ([M-H]-) 131.7 Å².

As to `O=C(O)Cc1c[nH]c2ccc(O)cc12` [5-Hydroxyindoleacetate], the “collision cross section (N2)” value ([M+H]+) is 140.9 Å².

Turning to `OCCc1c[nH]c2ccc(O)cc12` [5-Hydroxytryptophol], the “collision cross section (N2)” value runs as follows: ([M+H]+) 138.7 Å²; ([M-H]-) 134.49 Å².

For `C[C@H](NC(=O)CC[C@H](N)C(=O)O)C(=O)O` [5-L-Glutamyl-L-alanine], the “collision cross section (N2)” value is, setting by setting: ([M+H]+) 149.6 Å²; ([M-H]-) 140.25 Å².

As for `COc1ccc2[nH]cc(CCN(C)C)c2c1` [5-Methoxydimethyltryptamine], the “collision cross section (N2)” value stood at 151.5 Å² ([M+H]+) and 153.76 Å² ([M-H]-).

With `COc1ccc2[nH]cc(CC(=O)O)c2c1` [5-Methoxyindoleacetate], the “collision cross section (N2)” value ([M+H]+) came to 144 Å².

As to `COc1ccc2[nH]cc(C[C@H](N)C(=O)O)c2c1` [5-methoxytryptophan], the “collision cross section (N2)” value is reported as 156.2 Å² ([M+Na]+) and 154.36 Å² ([M-H]-).

`C[C@]12CCC(=O)C=C1CC[C@@H]1[C@@H]2CC[C@@]2(C)[C@H]1CC[C@]2(O)C(=O)CO` [11-Deoxycortisol]: for the setting “[M-H]-”, the “collision cross section (N2)” value was determined as 183.12 Å².

Turning to `CC(=O)[C@H]1CC[C@H]2[C@@H]3CCC4=CC(=O)CC[C@]4(C)[C@H]3[C@@H](O)C[C@]12C` [11beta-Hydroxyprogesterone], the “collision cross section (N2)” value is, setting by setting: ([M+H]+) 182.3 Å²; ([M-H2O-H]-) 180.95 Å².

Take `CCCCC/C=C/C=C1/C(=O)C=C[C@@H]1C/C=C\CCCC(=O)O` [15-Deoxy-delta-12,14-PGJ2]: the “collision cross section (N2)” value ([M+Na]+) is 192.5 Å².

As for `C[C@H](CCCC(C)(C)O)[C@H]1CC[C@H]2[C@@H]3CC=C4C[C@@H](O)CC[C@]4(C)[C@H]3CC[C@]12C` [25-Hydroxycholesterol], the “collision cross section (N2)” value ([M-H]-) is 202.81 Å².

As for `CCCCC/C=C\C/C=C\C/C=C\CCCCC(=O)O` [(6,9,12)-Linolenic acid], the “collision cross section (N2)” value ([M+H]+) is recorded as 174.1 Å².

Regarding `CC(=O)OP(=O)(O)O` [Acetyl phosphate], the “collision cross section (N2)” value ([M+Na]+) is 142.7 Å².

For the compound `CC(=O)SCCNC(=O)CCNC(=O)[C@H](O)C(C)(C)COP(=O)(O)OP(=O)(O)OC[C@H]1O[C@@H](n2cnc3c(N)ncnc32)[C@H](O)[C@@H]1OP(=O)(O)O` [Acetyl-CoA], where the note is “[M+H]+”, the “collision cross section (N2)” value was 244.7 Å².

For `Nc1ncnc2c1ncn2[C@@H]1O[C@@H]2COP(=O)(O)O[C@H]2[C@H]1O` [Adenosine 3',5'-cyclic phosphate], the “collision cross section (N2)” value ([M+H]+) was found to be 176.8 Å².

For the compound `Nc1ncnc2c1ncn2[C@@H]1O[C@H](COP(=O)(O)OP(=O)(O)OP(=O)(O)O)[C@@H](O)[C@H]1O` [Adenosine 5'-triphosphate], the “collision cross section (N2)” value is, setting by setting: ([M+H]+) 196.4 Å²; ([M-H]-) 185.74 Å².

On to `Nc1ncnc2c1ncn2[C@@H]1O[C@H](COP(=O)(O)O)[C@@H](O)[C@H]1O` [Adenosine monophosphate (AMP)], for which the “collision cross section (N2)” value ([M+H]+) came to 171.4 Å².

`O=C(O)CCCCC(=O)O` [Adipic acid]: the “collision cross section (N2)” value ([M+Na-2H]-) came to 129.61 Å².

As for `O=P(O)(O)OC[C@H]1O[C@H](OP(=O)(O)O)[C@H](O)[C@@H](O)[C@@H]1O` [Alpha-D-Glucose 1,6-bisphosphate], the “collision cross section (N2)” value ([M+Na-2H]-) came to 159.11 Å².

Consider `OC[C@H]1O[C@H](O)[C@H](O)[C@@H](O)[C@@H]1O` [Alpha-D-Glucose], for which, for the setting “[M+Na]+”, the “collision cross section (N2)” value worked out at 146.2 Å².

Consider `C[C@]12CCC(=O)C=C1CC[C@@H]1[C@@H]2CC[C@]2(C)C(=O)CC[C@@H]12` [Androstendione], for which the “collision cross section (N2)” value ([M-H]-) is 172.77 Å².

As to `C[C@]12CC[C@@H](O)C[C@@H]1CC[C@@H]1[C@@H]2CC[C@]2(C)C(=O)CC[C@@H]12` [Androsterone], the “collision cross section (N2)” value ([M+H-H2O]+) is reported as 166.6 Å².

In the case of `COC(=O)[C@H](Cc1ccccc1)NC(=O)[C@@H](N)CC(=O)O` [Aspartame], the “collision cross section (N2)” value is recorded as 169.6 Å² ([M+H]+) and 166.71 Å² ([M-H]-).

For the compound `O=C1CC(=O)NC(=O)N1` [Barbituric acid], where the note is “[M-H]-”, the “collision cross section (N2)” value is recorded as 112.69 Å².

Turning to `C[C@]12CC[C@@H]3c4ccc(O)cc4CC[C@H]3[C@@H]1CC[C@@H]2O` [Beta-Estradiol], where the note is “[M-H]-”, the “collision cross section (N2)” value turned out to be 173.34 Å².

On to `C=CC1=C(C)/C(=C/c2[nH]c(Cc3[nH]c(/C=C4\NC(=O)C(C)=C4C=C)c(C)c3CCC(=O)O)c(CCC(=O)O)c2C)NC1=O` [Bilirubin], for which the “collision cross section (N2)” value ([M-H]-) was determined as 247.18 Å².

With `Nc1ccn([C@@H]2O[C@H](COP(=O)(O)OP(=O)(O)O)[C@@H](O)[C@H]2O)c(=O)n1` [CDP], where the note is “[M+H]+”, the “collision cross section (N2)” value is on record as 175.1 Å².

Consider `CCCCCCCCCC(=O)O` [Capric acid], for which the “collision cross section (N2)” value ([M-H]-) was 146.87 Å².

Turning to `O=C(/C=C/c1ccc(O)c(O)c1)O[C@@H]1C[C@](O)(C(=O)O)C[C@@H](O)[C@H]1O` [Chlorogenic acid], the “collision cross section (N2)” value runs as follows: ([M+H]+) 185.1 Å²; ([M+Na-2H]-) 173.79 Å².

`C[C@H](CCC(=O)O)[C@H]1CC[C@H]2[C@@H]3[C@H](O)C[C@@H]4C[C@H](O)CC[C@]4(C)[C@H]3C[C@H](O)[C@]12C` [Cholic acid]: the “collision cross section (N2)” value by setting is: ([M+Na]+) 197.3 Å²; ([M-H]-) 200.72 Å².

As for `CC(C)(COP(=O)(O)OP(=O)(O)OC[C@H]1O[C@@H](n2cnc3c(N)ncnc32)[C@H](O)[C@@H]1OP(=O)(O)O)[C@@H](O)C(=O)NCCC(=O)NCCS` [Coenzyme A], the “collision cross section (N2)” value ([M+H]+) stood at 240.4 Å² and the “collision cross section (N2)” value ([M-H]-) came out at 241.54 Å².

For `C[C@]12CCC(=O)C=C1CC[C@@H]1[C@@H]2CC[C@@]2(C)[C@H]1CC[C@]2(O)C(=O)CO` [Cortexolone], where the note is “[M+H]+”, the “collision cross section (N2)” value worked out at 187.4 Å².

Regarding `C[C@]12C[C@H](O)[C@H]3[C@@H](CCC4=CC(=O)CC[C@@]43C)[C@@H]1CC[C@@H]2C(=O)CO` [Corticosterone], the “collision cross section (N2)” value was 186.8 Å² ([M+H]+) and 186.46 Å² ([M-H]-).
